Assay results published in US6930093B2, “Use of ribofuranose derivatives against inflammatory bowel diseases” (Valeant Research & Development, priority 2003, dated 2005).
Values joined by “and” are separate entries in the source; they are usually repeats but may differ in a detail not shown here. Equal values may be shown once.

Test system: DNBS induced distal colitis in Wistar rats
Test: DNBS (2,4 dinitrobenzenesulfonic acid) induced distal colitis in Wistar rats as a model for inflammatory bowel disease
Format: in vivo, Wistar derived female rats
Conditions: for I: Table 3; for I / Colon weight per 100 g B.W.: ribavirin 100 mg/kg × 7 or sulfasalazine 300 mg/kg × 7 p.o.; for Colon weight per 100 g B.W.: sacrifice 24 hours after final dosing
Procedure: Wistar derived female rats were provided by MDS Pharma Services Taiwan Ltd. and housed in APEC^R cages. All animals were maintained in a controlled temperature (22° C.-24° C.) and humidity (60-80%) environment with 12 hours light dark cycles for at least one week in the laboratory prior to use. Free access to standard lab chow (LabDiet, Rodent Diet, PMI Nutrition International, USA) and tap water was granted. All aspects of the work including housing, experimentation and disposal of animals were performed in general accordance with the International Guiding Principles for Biomedical Research Involving Animals (CIOMSI Publication No. ISBN 9290360194, 1985).
[…] (TCI, Japan), absolute ethanol (Merck, Germany), sodium chloride (Wako, Japan), sulfasalazine (Sigma, USA) and Tween 80 (Wako, Japan).
Groups of 3 Wistar derived female rats weighing 180±20 grams and fasted for 24 hours were used. Distal colitis was induced by intra-colonic instillation of 2,4-ninitrobenzene sulfonic acid (DNBS; 30 mg in 0.5 mL ethanol 30%), which was followed by injection of air (2 mL) through a cannula to ensure that the solution remained in the colon. […] Two control groups were similarly treated with vehicle alone while challenged with either DNBS (vehicle-control) or 0.9% NaCl solution (blank-control). The animals were sacrificed 24 hours after the final dosing of test compound and each colon was removed and weighed. During the experiment, the presence of diarrhea was recorded daily. Furthermore, when the abdominal cavity was opened, adhesions between the colon and other organs were first noted; presence of colonic ulceration was evaluated after removal and weighing of each colon. The colon-to-body weight (BW) ratio was then calculated for each animal according to the formula: Colon [(g)/BW(g)]×100%. The “Net” increase in the ratio of vehicle-control+DNBS group relative to vehicle-control group was used as a base for comparison with test substance treated groups and expressed as percent decrease. A 30% or more (≧30%) reduction in colon-to-body weight ratio, relative to the vehicle-treated control group, is considered significant.

Row | SMILES | I (group Avg of 3 rats) | Colon weight per 100 g B.W. (group Avg of 3 rats) | I (individual animals (N 1-3)) | Colon weight per 100 g B.W. (individual animals (N 1-3)) | effectiveness in this IBD model (ribavirin 100 mg/kg p.o., 24 and 2 hours before DNBS and then daily for 5 days)
1 | O=C(O)c1cc(/N=N/c2ccc(S(=O)(=O)Nc3ccccn3)cc2)ccc1O [Sulfasalazine, sulfasalazine] | 0.625 | 0.98 | 0.631 and 0.548 and 0.697 | 1.01 and 0.85 and 1.08 | 
2 | NC(=O)c1ncn([C@@H]2O[C@H](CO)[C@@H](O)[C@H]2O)n1 [Ribavirin, 1-β-D-ribofuranosyl-1H-1,2,4-triazole-3-carboxamide] | 0.733 |  | 0.780 and 0.619 and 0.800 | 0.96 and 1.24 | effective
